The source of these data is patent US12691183B2, “Methods of making and using nanoparticles for treatment of bacterial biofilm” (Brown University, priority 2022, dated 2026).

Where a name gives a salt, the structure may show the parent alone.

Data set [1] relates to V. vulnificus biofilm. In words: Inhibition of biofilm formation, crystal violet staining. Format: cell-based. The following applies: inhibits biofilm formation by 80%, 24-hour incubation. As to the method:
The investigate the effect of free Doxy and Doxy-loaded NPs on V. vulnificus biofilm formation, V. vulnificus was prepared for biofilm formation. When adding the bacteria in its logarithmic growth phase to 96-well plates, free Doxy or Doxy-loaded NPs were added simultaneously at varying concentrations. Bacteria lacking Doxy treatment were included as a PC and LBS without bacteria was included as a NC. Following a 24-hour incubation in static conditions, the biofilm biomass was quantified using crystal violet staining. Briefly, the supernatant media was gently removed, and biofilms were washed three times with 1×PBS. Next biofilms were stained with 200 μL 0.1% (w/v) crystal violet in 1×PBS for 15 minutes, followed by three 1×PBS washes. The stain was eluted by incubation with 200 μL of 100% ethanol with shaking (100 rpm) for 2 min at RT. The absorbance at 570 nm (OD570) was measured using a plate reader. Normalized biofilm biomass was calculated as follows: [formula]

In data set [2] the test system is V. vulnificus. In words: Ex vivo pig skin infection model. The class given is cell-based. As to the method: Frozen porcine skin tissue was thawed and washed with 1×PBS. A biopsy punch (8 mm) was used to create tissue sections from freshly thawed tissue. A 1.5-mm deep well was created in the center of each of these skin samples using a smaller 3-mm biopsy punch. The tissue pieces were sterilized by immersing in 70% (v/v) ethanol for 2 hours and drying for 30 minutes in a CellGard™ Energy Saver class II, type A2 biosafety cabinet (NuAire, Plymouth, MN). The sterile tissue was then placed on soft TSB agar plates containing 0.5% (w/v) agar with 100 μg/mL vancomycin. Note that vancomycin was included as a common antibiotic against gram-positive to prevent contamination by non-V. vulnificus bacteria. The skin was then infected by adding 10 μL of V. vulnificus suspension (OD600=0.1) in the 3 mm diameter well in each sample. The inoculated skin pieces were incubated for 48 hours at 37° C. in a humidified chamber. The tissue samples were transferred to a new agar plate every 24 hours. At 48 hours, 15 μL of Doxy or HA-CS-Doxy-GNP at a Doxy concetration of 10, 50 or 100 μg/mL was added to the infected skin samples and incubated for a further 24 hours. Controls of tissue inoculated with bacteria treated with LBS at pH 5.5 only and tissue without bacteria treated with LBS at pH 5.5 were included as controls. […]

The subject of data set [3] is V. vulnificus biofilm. In words: Colony counting assay of treated mature biofilm. The following applies: 50 μg/mL Doxy, 24 h. The class given is cell-based. As to the method:
The effect of treatment with free Doxy, Doxy-GNP, CS-Doxy-GNP, and HA-CS-Doxy-GNP of 48 h aged V. vulnificus biofilms was assessed by examining biofilm morphology and quantifying biomass and cell viability. Morphology assessment via ESEM, LIVE/DEAD viability staining, colony enumeration and crystal violet staining were performed after incubation of the biofilms with the various treatment groups at a Doxy concentration of 50 μg/mL in 1×PBS or with a 1×PBS control for 24 hours at 37° C. Colony enumeration was also conducted by first dispersing biofilms formed in 48-well plates by sonication following treatment. Each sample was then serially diluted in LB, and […] of the dilution was plated onto LB agar plates. Agar plates were imaged and CFU were counted following incubation for 24 h at 37° C.

A further data set relates to HUVEC. In words: CCK-8 cytotoxicity assay, HUVEC. Format: cell-based, human. The following applies: 50 μg/mL Doxy, 24 hour. As to the method:
(§1) The cytotoxicity of each NP formulation was evaluated for HUVEC and […] using a CCK-8 viability assay. Briefly, HUVEC and NIH 3T3 cells were cultured at a density of ~5000 cells/cm^2 in EGM-2 endothelial cell growth medium and DMEM supplemented with 10% (v/v) FBS and 1% (v/v) penicillin/streptomycin, respectively at 37° C. with 5% CO2. After 24 hours, cells were treated with Doxy, Doxy-GNPs, CS-Doxy-GNP and HA-CS-Doxy-GNP at a Doxy concentration of 50 μg/mL in the respective media. Cells treated with media only and wells containing no cells or NPs were included as PCs and NCs, respectively. Following a 24 hour incubation, the media was removed, cells were rinsed with 1×PBS three times and 10 μL of CCK-8 solutions was added to each well. After incubation for 4 hours at 37° C. with 5% CO2, the absorbance was read at 450 nm (OD450) using a plate reader. Normalized cell viability was calculated using the following equation. [formula]
(Formazan colour is commonly taken as a measure of viable cells.)

Another data set concerns NIH 3T3 cells. In words: CCK-8 cytotoxicity assay, NIH 3T3. The class given is cell-based, mouse. The following applies: NIH 3T3, 50 μg/mL Doxy, 24 hour. The procedure:
as §1

For data set [4], the system named is V. vulnificus. In words: MIC microdilution assay against planktonic bacteria. Format: cell-based. The following applies: Vibrio vulnificus, 16-18 hours, Doxy or loaded Doxy concentration. As to the method:
The minimum inhibitory concentrations (MICs) of NPs against V. vulnificus were determined using the microdilution assay as previously reported. See T. Gwisai, N. R. Hollingsworth, S. Cowles, N. Tharmalingam, E. Mylonakis, B. B. Fuchs and A. Shukla, Biomedical Materials, 2017, 12, 045010; D. Alkekhia and A. Shukla, Journal of Biomedical Materials Research Part A, 2019, 107, 1324-1339. Free Doxy and Doxy loaded NPs were diluted 2-fold in LB in 96-well plates to obtain concentrations of Doxy or loaded Doxy ranging from 0.03-4.0 μg/mL. V. vulnificus in LB media in its logarithmic growth phase was added to each well at a final concentration of 1×10^5 colony forming units (CFU)/mL. Positive control (PC) of bacteria cultured in LB only and negative control (NC) of LB without bacteria were included. After 16-18 hours of shaking (100 rpm) at 37° C., OD600 was measured using a plate reader. The normalized bacteria density (%) was calculated as follows: […]
Background: Dilution methods test growth across graded concentrations, often in twofold steps.

For data set [5], the system named is V. vulnificus biofilm. Briefly: Eradication of mature biofilm, crystal violet assay. Format: cell-based. The following applies: reduces initial biomass of 48 h mature biofilm by 90%, 24 h treatment. As to the method: Unless otherwise noted, all biofilm experiments utilized the following procedure for the formation of a 48 h matured biofilm. V. vulnificus inoculated LB medium was incubated for 18 h with shaking (100 rpm) at 37° C. This bacteria suspension was dilute 1:500 (v/v) in LB media supplemented with 2% w/v NaCl (LB S) at pH 5.5. The optical density of the bacteria suspension at 600 nm (OD600) was monitored overtime. Once in its logarithmic growth phase (OD600=0.1, which is ~1.5×10^7 CFU/mL), biofilms were formed by static incubation of bacteria at 37° C. for 48 hours either in chamber slides of multi-well plates. Every 24 hours, the biofilms were gently washed three times with 1×PBS and add fresh LBS was added.
The effect of treatment with free Doxy, Doxy-GNP, CS-Doxy-GNP, and HA-CS-Doxy-GNP of 48 h aged V. vulnificus biofilms was assessed by examining biofilm morphology and quantifying biomass and cell viability. Morphology assessment via ESEM, LIVE/DEAD viability staining, colony enumeration and crystal violet staining were performed after incubation of the biofilms with the various treatment groups at a Doxy concentration of 50 μg/mL in 1×PBS or with a 1×PBS control for 24 hours at 37° C.
Biofilm biomass was assessed for 48 h mature biofilms formed in 96-well plates. […] Following 24 hours of incubation, the biofilm biomass was quantified using crystal violet staining as described earlier.

Turning to `C[C@H]1c2cccc(O)c2C(=O)C2=C(O)[C@]3(O)C(=O)C(C(N)=O)=C(O)[C@@H](N(C)C)[C@@H]3[C@@H](O)[C@@H]21` [Doxy, doxycycline hydrochloride], the MBIC80 result in the data set with V. vulnificus biofilm [1] is on record as “about 16 μg/mL”. For the same compound, the “number of living bacterial cells compared with untreated pig skin” value in the data set with V. vulnificus [2] (50 μg/mL or 100 μg/mL Doxy, 24 hours) was “significantly reduced”. Besides, the “mean value of CFU/mL relative to untreated samples (100%)” value in the data set on V. vulnificus [2] (2 days infection, 24 hours treatment, 100 μg/mL Doxy) is on record as 16.42%. The “reduction in CFU compared to no treatment control” value in the data set with V. vulnificus biofilm [3] came to 2 log reduction. Moreover, the cell viability entry in the data set on HUVEC was “about 60%”; in the data set on NIH 3T3 cells, “about 70%”. This compound returned an MIC with V. vulnificus [4] of 0.5 µg/mL. Besides, in the data set with V. vulnificus biofilm [5], the MBEC90 entry was “about 50 μg/mL”.

By MIC is commonly meant the smallest concentration in the dilution series that meets the test's criterion for growth inhibition. A low value points to greater potency.
